According to US12060349B2, “Glucosylceramide synthase inhibitors” (Genzyme Corporation, priority 2012, dated 2024):
Where two headings read alike, the source gives them in different places.

Key:
C32 human melanoma cells = experiment: cell viability in the C32 cell-based assay (Viability, C32 IC50); settings: concentration causing 50% cell death, values greater than 10 represent a lack of cell death
Summary of the method: (§1)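 Cell death was scored within the cell-based GM3 experiment for each line. The viability value is the concentration producing 50% death, and numbers exceeding 10 signify no cytotoxicity.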

[1] = tested on: GM3 expression on the cell surface, B16 mouse melanoma cells; experiment: cell based phenotypic assay, cell surface GM3 by antibody mediated immunofluorescence, B16 (GM3 B16 IC50); settings: 50% inhibition of GM3 expression on the cell surface
Summary of the method: (§2)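 Both lines undergo the phenotypic GM3 assay, and viability is recorded from that same cell-based run.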

B16 mouse melanoma cells = experiment: cell viability in the B16 cell-based assay (Viability, B16 IC50)
Summary of the method: as §1

[2] = biological target: T1, glucosylceramide synthase (Homo sapiens, UniProt Q16739); experiment: microsomal assay measuring conversion of ceramide to glucosylceramide by HPLC (GCS IC50); type: biochemical; settings: concentration causing 50% inhibition of glucosylceramide synthase activity
T1 construct: Microsomes were isolated from A375 human melanoma cells; endogenous in cells; host or cells: A375 human melanoma cells (microsomal fraction, 100,000 g pellet)
T1 sequence (Q16739 1-394): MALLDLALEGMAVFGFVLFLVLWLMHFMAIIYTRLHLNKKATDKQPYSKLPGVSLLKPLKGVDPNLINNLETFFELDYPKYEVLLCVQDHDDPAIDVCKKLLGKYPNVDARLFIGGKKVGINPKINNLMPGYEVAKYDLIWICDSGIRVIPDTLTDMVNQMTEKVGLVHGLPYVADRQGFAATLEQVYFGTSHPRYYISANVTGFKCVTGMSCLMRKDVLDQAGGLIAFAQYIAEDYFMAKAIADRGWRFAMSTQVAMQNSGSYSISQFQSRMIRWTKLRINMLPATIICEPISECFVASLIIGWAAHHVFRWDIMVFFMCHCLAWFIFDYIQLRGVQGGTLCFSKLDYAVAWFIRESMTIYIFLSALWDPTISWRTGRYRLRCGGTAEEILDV
Summary of the method: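 IC50 is the compound concentration halving glucosylceramide synthase activity. Activity was measured in microsomes, with HPLC quantifying glucosylceramide formed from ceramide.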

[3] = tested on: GM3 expression on the cell surface, C32 human melanoma cells; experiment: cell based phenotypic assay, cell surface GM3 by antibody mediated immunofluorescence, C32 (GM3 C32 IC50); settings: 50% inhibition of GM3 expression on the cell surface
Summary of the method: as §2

[4] = Homo sapiens, C32, C32 cells, read-out: Viability, C32 IC50
[5] = Mus musculus, B16 mouse melanoma cells, read-out: GM3 B16 IC50
[6] = Mus musculus, B16, B16 cells, concentration causing 50% cell death, values greater than 10 represent a lack of cell death, read-out: Viability, B16 IC50
[7] = Homo sapiens, C32 human melanoma cells, read-out: GM3 C32 IC50
[8] = Homo sapiens, C32, read-out: Viability, C32 IC50, C32 cells
[9] = Mus musculus, read-out: GM3 B16 IC50, B16 mouse melanoma cells
[10] = Mus musculus, B16, read-out: Viability, B16 IC50
[11] = Homo sapiens, read-out: GM3 C32 IC50, C32 human melanoma cells
[12] = read-out: Viability, C32 IC50, C32 cells

COCCOCc1ccc(-c2ccnc(N3CCC(C)(C(=O)NC4(C)CN5CCC4CC5)CC3)n2)cc1 (stereo not drawn) [Example 98, 1-(4-(4-((2-Methoxyethoxy)methyl)phenyl)pyrimidin-2-yl)-4-methyl-N-(3-methylquinuclidin-3-yl)piperidine-4-carboxamide]
IC50 (C32 human melanoma cells; [4]): 1000 nM | IC50 [1, 5]: 1910 nM | IC50 (B16 mouse melanoma cells; [6]): 8190 nM | IC50 [2]: 76.9 nM | IC50 [3, 7]: 8.13 nM

CCC1(NC(=O)N2CCN(c3cccc(-c4ccc(F)cc4)c3)CC2)CN2CCC1CC2 (stereo not drawn) [Example 23, N-(3-Ethylquinuclidin-3-yl)-4-(4′-fluoro-[1,1′-biphenyl]-3-yl)piperazine-1-carboxamide]
IC50 (C32 human melanoma cells; [4]): 3160 nM | IC50 [1, 5]: 351 nM | IC50 (B16 mouse melanoma cells; [6]): 7070 nM | IC50 [2]: 1580 nM | IC50 [3, 7]: 90.9 nM

COCCCOc1ccc(-c2nc(C(C)(C)NC(=O)OC3CCN4CCC3CC4)cs2)cc1 (stereo not drawn) [Example 341, 1-Azabicyclo[3.2.2]nonan-4-yl (2-(2-(4-(3-methoxypropoxy)phenyl)thiazol-4-yl)propan-2-yl)carbamate]
IC50 (C32 human melanoma cells; [4]): ≥ 10000 nM | IC50 [1, 5]: 90.4 nM | IC50 (B16 mouse melanoma cells; [6]): ≥ 10000 nM | IC50 [2]: 19.3 nM | IC50 [3, 7]: 7.19 nM

CC(C)(NC(=O)NC1(C)CCN2CCC1CC2)c1ccc(Oc2ccc(C(=O)N3CCOCC3)cc2)cc1 (stereo not drawn) [Example 281, 1-(4-Methyl-1-azabicyclo[3.2.2]nonan-4-yl)-3-(2-(4-(4-(morpholine-4-carbonyl)phenoxy)phenyl)propan-2-yl)urea]
IC50 (C32 human melanoma cells; [4]): 1000 nM | IC50 [1, 5]: 440 nM | IC50 (B16 mouse melanoma cells; [6]): ≥ 10000 nM | IC50 [2]: 31.6 nM | IC50 [3, 7]: 7.79 nM

CC1(COc2ccc(-c3ccc(C(C)(C)NC(=O)OC4CN5CCC4CC5)cc3)cc2)COC1 (stereo not drawn) [Example 191, Quinuclidin-3-yl (2-(4′-((3-methyloxetan-3-yl)methoxy)-[1,1′-biphenyl]-4-yl)propan-2-yl)carbamate]
IC50 (C32 human melanoma cells; [8]): 1000 nM | IC50 [1, 9]: 71.8 nM | IC50 (B16 mouse melanoma cells; [10]): 5250 nM | IC50 [2]: 7.2 nM | IC50 [3, 11]: 3.24 nM

COCc1ccc(-c2nc(N3CCC(C(=O)NC4(C)CCN5CCC4CC5)CC3)ncc2F)cc1 (stereo not drawn) [Example 60, 1-(5-Fluoro-4-(4-(methoxymethyl)phenyl)pyrimidin-2-yl)-N-(4-methyl-1-azabicyclo[3.2.2]nonan-4-yl)piperidine-4-carboxamide]
IC50 (C32 human melanoma cells; [4]): 46.4 nM | IC50 [1, 5]: 15.5 nM | IC50 (B16 mouse melanoma cells; [6]): 3500 nM | IC50 [2]: 1.68 nM | IC50 [3, 7]: 0.1 nM

CC1(NC(=O)C2CCN(c3ccnc(-c4ccc(F)cc4)n3)CC2)CCN2CCC1CC2 (stereo not drawn) [Example 51, 1-(2-(4-Fluorophenyl)pyrimidin-4-yl)-N-(4-methyl-1-azabicyclo[3.2.2]nonan-4-yl)piperidine-4-carboxamide]
IC50 (C32 human melanoma cells; [4]): 3160 nM | IC50 [1, 5]: 335 nM | IC50 (B16 mouse melanoma cells; [6]): 8260 nM | IC50 [2]: 46.6 nM | IC50 [3, 7]: 3.88 nM

CC(C)(NC(=O)OC1CCN2CCC1CC2)c1ccc(-c2ccc(CCc3c[nH]nn3)cc2)cc1 (stereo not drawn) [Example 228, 1-Azabicyclo[3.2.2]nonan-4-yl (2-(4′-(2-(1H-1,2,3-triazol-4-yl)ethyl)-[1,1′-biphenyl]-4-yl)propan-2-yl)carbamate]
IC50 (C32 human melanoma cells; [4]): 3160 nM | IC50 [1, 5]: 80.8 nM | IC50 (B16 mouse melanoma cells; [6]): 7650 nM | IC50 [2]: 18.2 nM | IC50 [3, 7]: 6.08 nM

CC(C)(NC(=O)NC1(C)CN2CCC1CC2)c1ccc(-c2ccc(S(=O)(=O)CC3CC3)cc2)cc1 (stereo not drawn) [Example 240, 1-(2-(4′-((Cyclopropylmethyl)sulfonyl)-[1,1′-biphenyl]-4-yl)propan-2-yl)-3-(3-methylquinuclidin-3-yl)urea]
IC50 (C32 human melanoma cells; [4]): 1000 nM | IC50 [1, 5]: 86.5 nM | IC50 (B16 mouse melanoma cells; [6]): ≥ 10000 nM | IC50 [2]: 13.3 nM | IC50 [3, 7]: 5.97 nM

COCCCOc1ccc(-c2ccc(C(C)(C)NC(=O)OC3CN4CCC3CC4)cc2)cc1 (stereo not drawn) [Example 172, Quinuclidin-3-yl (2-(4′-(3-methoxypropoxy)-[1,1′-biphenyl]-4-yl)propan-2-yl)carbamate]
IC50 (C32 human melanoma cells; [8]): ≥ 10000 nM | IC50 [1, 9]: 66.6 nM | IC50 (B16 mouse melanoma cells; [10]): 8290 nM | IC50 [2]: 2.41 nM | IC50 [3, 11]: 1.56 nM

COCCOc1ccc(-c2nc(C(C)(C)NC(=O)N3CCN4CCC3CC4)cs2)cc1 [Example 345, N-(2-(2-(4-(2-Methoxyethoxy)phenyl)thiazol-4-yl)propan-2-yl)-1,4-diazabicyclo[3.2.2]nonane-4-carboxamide]
IC50 (C32 human melanoma cells; [4]): 3160 nM | IC50 [1, 5]: 369 nM | IC50 (B16 mouse melanoma cells; [6]): ≥ 10000 nM | IC50 [2]: 2540 nM | IC50 [3, 7]: 91 nM

COCCOc1ccc(-c2ccc(C(C)(C)NC(=O)OC3CCN4CCC3CC4)cc2)nc1 (stereo not drawn) [Example 310, 1-Azabicyclo[3.2.2]nonan-4-yl 2-(4-(5-(2-methoxyethoxy)pyridin-2-yl)phenyl)propan-2-ylcarbamate]
IC50 (C32 human melanoma cells; [4]): 3160 nM | IC50 [1, 5]: 145 nM | IC50 (B16 mouse melanoma cells; [6]): ≥ 10000 nM | IC50 [2]: 123 nM | IC50 [3, 7]: 12.1 nM

COCCOc1ccc(Cc2cnc(N3CCC(F)(C(=O)NC4(C)CN5CCC4CC5)CC3)nc2)cc1 (stereo not drawn) [Example 136]
IC50 (C32 human melanoma cells; [4]): 1000 nM | IC50 [1, 5]: 24.9 nM | IC50 (B16 mouse melanoma cells; [6]): ≥ 10000 nM | IC50 [2]: 7.9 nM | IC50 [3, 7]: 0.716 nM

CCC1(NC(=O)N2CCN(c3cccc(-c4ccccc4)c3)CC2)CN2CCC1CC2 (stereo not drawn) [Example 21, 4-([1,1′-Biphenyl]-3-yl)-N-(3-ethylquinuclidin-3-yl)piperazine-1-carboxamide]
IC50 (C32 human melanoma cells; [4]): 3160 nM | IC50 [1, 5]: 168 nM | IC50 (B16 mouse melanoma cells; [6]): 7230 nM | IC50 [2]: 288 nM | IC50 [3, 7]: 25.2 nM

CN(C)C(=O)c1ccc(Oc2ccc(C(C)(C)NC(=O)OC3CN4CCC3CC4)cc2)cc1 (stereo not drawn) [Example 283, Quinuclidin-3-yl 2-(4-(4-(dimethylcarbamoyl)phenoxy)phenyl)propan-2-ylcarbamate]
IC50 (C32 human melanoma cells; [12]): ≥ 10000 nM | IC50 ([1]; read-out: GM3 B16 IC50, B16 mouse melanoma cells): 1030 nM | IC50 (B16 mouse melanoma cells; [10]): ≥ 10000 nM | IC50 [2]: 606 nM | IC50 ([3]; read-out: GM3 C32 IC50, C32 human melanoma cells): 114 nM

CC1(NC(=O)C2(F)CCN(c3cncc(Oc4ccc(F)cc4)n3)CC2)CCN2CCC1CC2 (stereo not drawn) [Example 126, 4-Fluoro-1-(6-(4-fluorophenoxy)pyrazin-2-yl)-N-(4-methyl-1-azabicyclo[3.2.2]nonan-4-yl)piperidine-4-carboxamide]
IC50 (C32 human melanoma cells; [4]): 1000 nM | IC50 [1, 5]: 36 nM | IC50 (B16 mouse melanoma cells; [6]): 6260 nM | IC50 [2]: 1.57 nM | IC50 [3, 7]: 0.726 nM

CC1(NC(=O)N2CCN(c3ccccc3)CC2)CCN2CCC1CC2 (stereo not drawn) [Example 10, N-(4-Methyl-1-azabicyclo[3.2.2]nonan-4-yl)-4-phenylpiperazine-1-carboxamide]
IC50 (C32 human melanoma cells; [4]): ≥ 10000 nM | IC50 [1, 5]: > 10000 nM | IC50 (B16 mouse melanoma cells; [6]): ≥ 10000 nM | IC50 [2]: 14700 nM | IC50 [3, 7]: 4240 nM

CC(C)(NC(=O)OC1CN2CCC1CC2)c1ccc(-c2ccc(CO)cc2)cc1 (stereo not drawn) [Example 223, Quinuclidin-3-yl (2-(4′-(hydroxymethyl)-[1,1′-biphenyl]-4-yl)propan-2-yl)carbamate]
IC50 (C32 human melanoma cells; [12]): ≥ 10000 nM | IC50 [1, 9]: 881 nM | IC50 (B16 mouse melanoma cells; read-out: Viability, B16 IC50, B16 cells, concentration causing 50% cell death, values greater than 10 represent a lack of cell death): ≥ 10000 nM | IC50 [2]: 454 nM | IC50 [3, 11]: 21.6 nM

CC1(NC(=O)N2CCN(c3ccccc3)CC2)CN2CCC1CC2 (stereo not drawn) [Example 9, N-(3-Methylquinuclidin-3-yl)-4-phenylpiperazine-1-carboxamide]
IC50 (C32 human melanoma cells; [4]): ≥ 10000 nM | IC50 [1, 5]: > 10000 nM | IC50 (B16 mouse melanoma cells; [6]): ≥ 10000 nM | IC50 [2]: 12200 nM | IC50 [3, 7]: 7590 nM

CC(C)(NC(=O)NC1(C)CN2CCC1CC2)c1ccc(-c2ccc(N3CCOCC3)cc2)cc1 (stereo not drawn) [Example 232, 1-(3-Methylquinuclidin-3-yl)-3-(2-(4′-morpholino-[1,1′-biphenyl]-4-yl)propan-2-yl)urea]
IC50 (C32 human melanoma cells; [4]): 1000 nM | IC50 [1, 5]: 64.2 nM | IC50 (B16 mouse melanoma cells; [6]): 1000 nM | IC50 [2]: 30.9 nM | IC50 [3, 7]: 7.17 nM

COCCCc1ccc(-c2ccc(C3(NC(=O)NC4(C)CCN5CCC4CC5)CC3)cc2)cc1 (stereo not drawn) [Example 213, 1-(1-(4′-(3-Methoxypropyl)-[1,1′-biphenyl]-4-yl)cyclopropyl)-3-(4-methyl-1-azabicyclo[3.2.2]nonan-4-yl)urea]
IC50 (C32 human melanoma cells; [4]): ≥ 10000 nM | IC50 [1, 5]: 5.9 nM | IC50 (B16 mouse melanoma cells; [6]): 9220 nM | IC50 [2]: 1.12 nM | IC50 [3, 7]: 0.35 nM
